Results: PubChem BioAssay AID1963450 (Molecular Pharmacology Branch, DTP, NCI, 2024)
pIC50: −log10 of the molar value.

Test system: 556581-035-R-J1-PDC complex spheroid growth
Test: Anticancer human tumor 556581-035-R-J1-PDC patient-derived ovarian carcinoma cell line growth inhibition [Asc]
Conditions: for pIC50: curve of first compound; for viability, T/C: stronger effect = lower value
Experimental: Multicellular complex tumor spheroid response to apoptosis pathway targeting inhibitors Alrizomadlin, Pelcitoclax, and Dasminapant in combination with a variety of drugs and investigational agents in selected tumor cell lines
The MDM2 inhibitor alrizomadlin, the Bcl-2/Bcl-xL inhibitor pelcitoclax, and the IAPs inhibitor dasminapant were evaluated both individually and in combination with standard of care and investigational anticancer small molecules within a complex spheroid model of solid tumors. . Complex spheroids include a stromal component modeled by human endothelial cells (HUVEC) and fibroblasts modeled by human mesenchymal stem cells (MSCs). The concentration ranges selected for each drug and investigational agent were based upon clinically achievable concentrations if the clinical Cmax of the agent was known.
Compounds. The drugs and investigational agents: alrizomadlin (APG-115; NSC831270), pelcitoclax (APG-1252; NSC835773), dasminapant (APG-1387;NSC834197), TAK-243 (NSC785004), copanlisib (NSC809693), olaparib (NSC753686), talazoparib (NSC767125), cobimetinib (NSC 768068), eltanexor (KPT-8602, NSC 794443), abemaciclib (NSC 768073), sotorasib (NSC818433), adagrasib (NSC 831453), MRTX-1133 (NSC 836407), Iadademestat (ORY1001, NSC 806812), and RMC-4630 (NSC839698), were obtained from the NCI Developmental Therapeutics Program Chemical Repository. The FDA-approved anticancer drug set is available from the Developmental Therapeutics Program at https://dtp.cancer.gov/organization/dscb/obtaining/available plates.htm. […] The stock solutions were prepared in dimethyl sulfoxide (DMSO, Sigma-Aldrich, St. Louis, MO, cat. D2650) at 800-fold the tested concentration and stored at -70 degrees C prior to their use. All drugs and investigational agents were tested over a range starting from a high concentration at or near the clinical Cmax and decreasing in half-log increments. If the clinical Cmax for an agent had not been determined, the highest concentration tested was 10 microM.
The patient-derived cancer (PDC) cell lines include five colon adenocarcinomas: 186277-243-T-J2-PDC, 616215-338-R-J1-PDC, 439559-082-T-J2-PDC, 463943-066-T-J2-PDC, and 519858-162-T-J1-PDC; three pancreatic carcinomas: 323965-272-R-J2-PDC, 521955-158-R6-J3-PDC, and 521955-158-R2-J5-PDC; two uterine sarcomas: 327498-152-R-J2-PDC and 993429-296-R-J1-PDC; two rhabdomyosarcomas: 755483-174-R-J1-PDC and 772245-204-R-J1-PDC; two soft tissue sarcomas: 126254-015-R-J1-PDC and 494315-158-R-J1-PDC; two malignant fibrous histiocytomas: 317291-083-R-J1-PDC and 596521-263-R-J1-PDC; two breast carcinomas: 171881-019-R-J1-PDC and 885512-296-R-J2-PDC; and one ovarian carcinoma: 6556581-035-R-J-PDC were obtained from the NCI PDMR, (https://pdmr.cancer.gov). The established cell lines HSSY-2 synovial sarcoma (RRID:CVCL 8719), SYO-1 synovial sarcoma (RRID:CVCL_7146), MPNST malignant peripheral neural sheath tumor were obtained from the Sloan Kettering Institute. The following established cell lines were purchased from the American Type Culture Collection (ATCC, Manassas, VA), Sor the received from the NCI repository:, PANC-1 pancreatic carcinoma (CRL-1469, RRID:CVCL_0480), OVCAR-5 ovarian carcinoma (RRID:CVCL_1628), OVCAR-8 ovarian carcinoma (RRID:CVCL_1629), , MCF-7 breast carcinoma (CRL-12584, RRID:CVCL_0031), MDA-MB-231 breast carcinoma (CRL-12532, RRID:CVCL_0062), NCI-H1876 small cell lung carcinoma (CRL-5902, RRID:CVCL_1503), NCI-H510A small cell lung carcinoma (HTB-184, RRID:CVCL_1565), NCI-H1417 (CRL-5869, RRID:CVCL_1469), and NCI-H196 small cell lung carcinoma (CRL-5823, RRID:CVCL_1509). Dr. Peter Houghton (Greehey Children's Cancer Research Institute, University of Texas Health Science Center, San Antonio, TX) provided Rh-18 rhabdomyosarcoma (RRID:CVCL_1659). Pooled donor human umbilical vein endothelial cells (HUVEC, Lonza, cat. CC-2519) and human mesenchymal stem cells (hMSC, Lonza, cat. PT-2501) were purchased from Lonza (Walkersville, MD).
Cell Culture. […]

[1] = second compound 0.03 µM, first compound 0.00316 µM
[2] = second compound 0.03 µM, first compound 0.01 µM
[3] = second compound 0.03 µM, first compound 0.0316 µM
[4] = second compound 0.03 µM, first compound 0.1 µM
[5] = second compound 0.0949 µM, first compound 0.00316 µM
[6] = second compound 0.0949 µM, first compound 0.01 µM
[7] = second compound 0.0949 µM, first compound 0.0316 µM
[8] = second compound 0.0949 µM, first compound 0.1 µM
[9] = second compound 0.3 µM, first compound 0.00316 µM
[10] = second compound 0.3 µM, first compound 0.01 µM
[11] = second compound 0.3 µM, first compound 0.0316 µM
[12] = second compound 0.3 µM, first compound 0.1 µM
[13] = second compound 0.949 µM, first compound 0.00316 µM
[14] = second compound 0.949 µM, first compound 0.01 µM
[15] = second compound 0.949 µM, first compound 0.0316 µM
[16] = second compound 0.949 µM, first compound 0.1 µM
[17] = second compound 3 µM, first compound 0.00316 µM
[18] = second compound 3 µM, first compound 0.01 µM
[19] = second compound 3 µM, first compound 0.0316 µM
[20] = second compound 3 µM, first compound 0.1 µM
[21] = second compound 0.03 µM, first compound 0.316 µM
[22] = second compound 0.03 µM, first compound 1 µM
[23] = second compound 0.0949 µM, first compound 0.316 µM
[24] = second compound 0.0949 µM, first compound 1 µM
[25] = second compound 0.3 µM, first compound 0.316 µM
[26] = second compound 0.3 µM, first compound 1 µM
[27] = second compound 0.949 µM, first compound 0.316 µM
[28] = second compound 0.949 µM, first compound 1 µM
[29] = second compound 3 µM, first compound 0.316 µM
[30] = second compound 3 µM, first compound 1 µM
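Note: spheroids exposed to agents for 7 days before viability read.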

Compound	pIC50 (second compound 0.03 µM)	pIC50 (second compound 0.0949 µM)	pIC50 (second compound 0.3 µM)	pIC50 (second compound 0.949 µM)	pIC50 (second compound 3 µM)	viability, T/C [1] [%]	viability, T/C [2] [%]	viability, T/C [3] [%]	viability, T/C [4] [%]	viability, T/C [5] [%]	viability, T/C [6] [%]	viability, T/C [7] [%]	viability, T/C [8] [%]	viability, T/C [9] [%]	viability, T/C [11] [%]	viability, T/C [12] [%]	viability, T/C [15] [%]	viability, T/C [16] [%]	viability, T/C [19] [%]	viability, T/C [20] [%]	also measured
Cn1ncnc1[C@H]1c2n[nH]c(=O)c3cc(F)cc(c23)N[C@@H]1c1ccc(F)cc1 + CCN1C(C(=O)NC23CCC(C(=O)O)(CC2)CC3)C(c2cccc(Cl)c2F)C2(C(=O)Nc3cc(Cl)ccc32)C12CCCCC2	< 7.00	< 7.00	< 7.00	< 7.00	< 7.00	94.4	87.7	94.3	95.2	116	96.1	94.9	92.3	97.2	87.1	83.4	90.6	92.7	84	86.8	viability, T/C (second compound 0.03 µM, first compound 0.000316 µM): 110%; viability, T/C (second compound 0.03 µM, first compound 0.001 µM): 102%; viability, T/C (second compound 0.0949 µM, first compound 0.000316 µM): 105%; viability, T/C (second compound 0.0949 µM, first compound 0.001 µM): 100%; viability, T/C (second compound 0.3 µM, first compound 0.000316 µM): 102%; viability, T/C (second compound 0.3 µM, first compound 0.001 µM): 130%; viability, T/C [10]: 107%; viability, T/C (second compound 0.949 µM, first compound 0.000316 µM): 109%; viability, T/C (second compound 0.949 µM, first compound 0.001 µM): 93.8%; viability, T/C [13]: 102%; viability, T/C [14]: 96.6%; viability, T/C (second compound 3 µM, first compound 0.000316 µM): 97%; viability, T/C (second compound 3 µM, first compound 0.001 µM): 94.8%; viability, T/C [17]: 78.7%; viability, T/C [18]: 87%
O=C(c1cc(Cc2n[nH]c(=O)c3ccccc23)ccc1F)N1CCN(C(=O)C2CC2)CC1 + CCN1C(C(=O)NC23CCC(C(=O)O)(CC2)CC3)C(c2cccc(Cl)c2F)C2(C(=O)Nc3cc(Cl)ccc32)C12CCCCC2	< 5.00	< 5.00	< 5.00	< 5.00	< 5.00			105	98			106	96.2		104	97.2	89.9	92.6	97.5	81.8	viability, T/C [21]: 85.5%; viability, T/C [22]: 89.9%; viability, T/C (second compound 0.03 µM, first compound 3.16 µM): 86.7%; viability, T/C (second compound 0.03 µM, first compound 10 µM): 70.6%; viability, T/C [23]: 94%; viability, T/C [24]: 93.7%; viability, T/C (second compound 0.0949 µM, first compound 3.16 µM): 87.9%; viability, T/C (second compound 0.0949 µM, first compound 10 µM): 77%; viability, T/C [25]: 99.2%; viability, T/C [26]: 97.1%; viability, T/C (second compound 0.3 µM, first compound 3.16 µM): 73.3%; viability, T/C (second compound 0.3 µM, first compound 10 µM): 79.2%; viability, T/C [27]: 103%; viability, T/C [28]: 86.1%; viability, T/C (second compound 0.949 µM, first compound 3.16 µM): 79.3%; viability, T/C (second compound 0.949 µM, first compound 10 µM): 83.6%; viability, T/C [29]: 87.5%; viability, T/C [30]: 86.8%; viability, T/C (second compound 3 µM, first compound 3.16 µM): 84.8%; viability, T/C (second compound 3 µM, first compound 10 µM): 65.9%
O=C(c1ccc(F)c(F)c1Nc1ccc(I)cc1F)N1CC(O)([C@@H]2CCCCN2)C1 + CCN1C(C(=O)NC23CCC(C(=O)O)(CC2)CC3)C(c2cccc(Cl)c2F)C2(C(=O)Nc3cc(Cl)ccc32)C12CCCCC2	6.68	6.68	6.74	6.73	7.04	118	99.4	97.7	72.9	108	114	95.8	85.9	106	127	73.5	100	78.1	86.3	47.3	viability, T/C [21]: 35.9%; viability, T/C [22]: 10.6%; viability, T/C [23]: 29.6%; viability, T/C [24]: 10.4%; viability, T/C [10]: 104%; viability, T/C [25]: 29.8%; viability, T/C [26]: 9.99%; viability, T/C [13]: 99.1%; viability, T/C [14]: 119%; viability, T/C [27]: 26.8%; viability, T/C [28]: 12.4%; viability, T/C [17]: 99.9%; viability, T/C [18]: 97.3%; viability, T/C [29]: 17.2%; viability, T/C [30]: 11.4%
